The test relates to BDF1 mice, colon carcinoma 38 sc, T/C %. The experiment in a line: NCI In Vivo Anticancer Drug Screen. Data for tumor model Colon Carcinoma 38 (subcutaneous) in B6D2F1 (BDF1) mice. Conditions: endpoint: median tumor weight (est.), higher = larger tumour. Summed up:
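Transplantable tumor in mice; compound-treated vs vehicle-dosed controls. Measured survival or tumor size; value = T ÷ C.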

[1] abbreviates: dose: 25.0 mg/kg/injection, schedule: Q07DX002 (ip), vehicle: saline with Tween-80.
The mark [2] stands for this setting: dose: 50.0 mg/kg/injection, schedule: Q07DX002 (ip), vehicle: saline with Tween-80.
Setting [3] is: dose: 100.0 mg/kg/injection, schedule: Q07DX002 (ip), vehicle: saline with Tween-80.
Setting [4] is: dose: 200.0 mg/kg/injection, schedule: Q07DX002 (ip), vehicle: saline with Tween-80.
[5] abbreviates: dose: 25.0 mg/kg/injection, schedule: Q07DX002 (ip), vehicle: saline.
Setting [6] is: dose: 400.0 mg/kg/injection, schedule: Q07DX002 (ip), vehicle: saline with Tween-80.

Structures are written as SMILES. “And” between values parts separate entries of the source, which are not always exact repeats. Identical values can stand only once. Records with an inconclusive call do not appear.

For the compound `COC(=O)Nc1cccc(-c2nc3ccc(NC(=O)OC)cc3c(=O)n2-c2ccccc2)c1`, the T/C (dose: 32.0 mg/kg/injection, schedule: Q07DX003 (ip), vehicle: Klucel (hydroxypropylcellulose) (HPC)) was 78 % of control; the T/C (dose: 64.0 mg/kg/injection, schedule: Q07DX003 (ip), vehicle: Klucel (hydroxypropylcellulose) (HPC)) was 70 % of control; the T/C (dose: 128.0 mg/kg/injection, schedule: Q07DX003 (ip), vehicle: Klucel (hydroxypropylcellulose) (HPC)) was 87 % of control; the T/C (dose: 256.0 mg/kg/injection, schedule: Q07DX003 (ip), vehicle: Klucel (hydroxypropylcellulose) (HPC)) was 30 % of control.

Turning to `O=C(O)C1(C(=O)O)CCC1.[NH2-].[NH2-].[Pt+2]`, the T/C was 81 % of control (dose: 6.25 mg/kg/injection, schedule: Q07DX002 (ip), vehicle: dextrose); 53 % of control (dose: 6.25 mg/kg/injection, schedule: Q07DX003 (ip), vehicle: other); 81 % of control (dose: 12.5 mg/kg/injection, schedule: Q07DX003 (ip), vehicle: other); 64 % of control (dose: 25.0 mg/kg/injection, schedule: Q07DX003 (ip), vehicle: dextrose); 74 % of control (dose: 25.0 mg/kg/injection, schedule: Q07DX003 (ip), vehicle: other); 34 % of control (dose: 50.0 mg/kg/injection, schedule: Q07DX003 (ip), vehicle: dextrose). Moreover, the T/C by setting is: (dose: 50.0 mg/kg/injection, schedule: Q07DX003 (ip), vehicle: other) 42 % of control; (dose: 100.0 mg/kg/injection, schedule: Q07DX003 (ip), vehicle: dextrose) 25 % of control; (dose: 100.0 mg/kg/injection, schedule: Q07DX003 (ip), vehicle: other) 21 % of control.

For `CC/C(=C(/CC)c1ccc(O)cc1)c1ccc(O)cc1`, the T/C (dose: 12.5 mg/kg/injection, schedule: Q07DX003 (ip), vehicle: saline with Tween-80) was 96 % of control; the T/C (dose: 25.0 mg/kg/injection, schedule: Q07DX003 (ip), vehicle: saline with Tween-80) was 153 % of control; the T/C (dose: 100.0 mg/kg/injection, schedule: Q07DX003 (ip), vehicle: saline with Tween-80) was 76 % of control; the T/C (dose: 200.0 mg/kg/injection, schedule: Q07DX003 (ip), vehicle: saline with Tween-80) was 179 % of control.

For `CCCCOCN(COCCCC)C12CC3CC(CC(C3)C1)C2`, the T/C is, setting by setting: under setting [1], 93 % of control; under setting [2], 73 % of control; under setting [3], 120 % of control; under setting [4], 69 % of control.

For `CC1C2CCC3C(O)C2(CC(O)C2(O)C1CC(O)C2(C)C)CC3(C)O` (configuration not stated), the T/C reads like this: (dose: 0.5 mg/kg/injection, schedule: Q07DX002 (ip), vehicle: Klucel (hydroxypropylcellulose) (HPC)) 103 % of control; (dose: 2.0 mg/kg/injection, schedule: Q07DX002 (ip), vehicle: Klucel (hydroxypropylcellulose) (HPC)) 181 % of control.

Consider `CC(C)CCCCCCCCCCCCC(=O)NCC(=O)NC1C(C)OC(Nc2ncnc3nc[nH]c23)C(O)C1O` (configuration not stated), for which the T/C (dose: 0.5 mg/kg/injection, schedule: Q07DX002 (ip), vehicle: distilled water + Tween-80) was 105 % of control.

For the compound `C=CCNc1ccc(C)cc1`, the T/C runs as follows: (dose: 12.5 mg/kg/injection, schedule: Q07DX002 (ip), vehicle: Klucel (hydroxypropylcellulose) (HPC)) 72 % of control; (dose: 25.0 mg/kg/injection, schedule: Q07DX002 (ip), vehicle: Klucel (hydroxypropylcellulose) (HPC)) 92 % of control; (dose: 50.0 mg/kg/injection, schedule: Q07DX002 (ip), vehicle: Klucel (hydroxypropylcellulose) (HPC)) 66 % of control; (dose: 100.0 mg/kg/injection, schedule: Q07DX002 (ip), vehicle: Klucel (hydroxypropylcellulose) (HPC)) 86 % of control; (dose: 200.0 mg/kg/injection, schedule: Q07DX002 (ip), vehicle: Klucel (hydroxypropylcellulose) (HPC)) 78 % of control.

`c1cc[c]([Sn]([NH]c2ncnc3[nH]cnc23)([NH]c2ncnc3[nH]cnc23)[c]2ccccc2)cc1`: the T/C runs as follows: under setting [5], 51 % of control; (dose: 50.0 mg/kg/injection, schedule: Q07DX002 (ip), vehicle: saline) 84 % of control; (dose: 100.0 mg/kg/injection, schedule: Q07DX002 (ip), vehicle: saline) 46 % of control; (dose: 200.0 mg/kg/injection, schedule: Q07DX002 (ip), vehicle: saline) 81 % of control; (dose: 400.0 mg/kg/injection, schedule: Q07DX002 (ip), vehicle: saline) 66 % of control.

Take `FC(F)(F)c1nc2nc(Cl)c(Cl)nc2[nH]1`: under setting [1], the T/C was 93 % of control.

With `COc1cccc(C2NC(=O)c3c(n[nH]c3N)S2)c1O` (configuration not stated), the T/C was 102 % of control under setting [1]; 106 % of control under setting [2]; 90 % of control under setting [3]; 94 % of control under setting [4]; 59 % of control under setting [6].

With `Cc1ccc(N)c(N)c1`, the T/C reads like this: under setting [1], 80 % of control; under setting [2], 89 % of control; under setting [3], 101 % of control; under setting [4], 114 % of control; under setting [6], 96 % of control.

For `COC(=O)[C@@H]1c2cc3c(c(O)c2[C@@H](OC)C[C@@]1(C)O)C(=O)c1c(O)cc2c(c1C3=O)OC1O[C@@]2(C)[C@H](O)[C@@H](N(C)C)[C@@H]1O`, the T/C is, setting by setting: (dose: 6.25 mg/kg/injection, schedule: Q07DX002 (ip), vehicle: saline) 101 % of control; (dose: 12.5 mg/kg/injection, schedule: Q07DX002 (ip), vehicle: saline) 115 % of control and 121 % of control; (dose: 12.5 mg/kg/injection, schedule: Q07DX003 (ip), vehicle: suspension in saline) 124 % of control; under setting [5], 102 % of control; (dose: 50.0 mg/kg/injection, schedule: Q07DX003 (ip), vehicle: suspension in saline) 114 % of control; (dose: 100.0 mg/kg/injection, schedule: Q07DX003 (ip), vehicle: suspension in saline) 106 % of control. The T/C is, setting by setting: (dose: 200.0 mg/kg/injection, schedule: Q07DX003 (ip), vehicle: suspension in saline) 104 % of control; (dose: 400.0 mg/kg/injection, schedule: Q07DX003 (ip), vehicle: suspension in saline) 85 % of control.

Consider `COc1cccc2c1C(=O)c1c(O)c3c(c(O)c1C2=O)C[C@@](O)(/C(CO)=N/NC(=O)c1ccc(Cl)c(Cl)c1)C[C@@H]3OC1CC(N)C(O)C(C)O1` (some centres not stated), for which the T/C reads like this: (dose: 1.5 mg/kg/injection, schedule: Q07DX002 (ip), vehicle: saline) 88 % of control; (dose: 3.0 mg/kg/injection, schedule: Q07DX002 (ip), vehicle: saline) 115 % of control; (dose: 6.0 mg/kg/injection, schedule: Q07DX002 (ip), vehicle: saline) 80 % of control; (dose: 12.0 mg/kg/injection, schedule: Q07DX002 (ip), vehicle: saline) 73 % of control; (dose: 24.0 mg/kg/injection, schedule: Q07DX002 (ip), vehicle: saline) 46 % of control; (dose: 48.0 mg/kg/injection, schedule: Q07DX002 (ip), vehicle: saline) 48 % of control.

For the compound `O=C1c2ccccc2C(=O)c2c(NCCNCCO)ccc(O)c21`, the T/C was 79 % of control and 95 % of control (dose: 5.0 mg/kg/injection, schedule: Q07DX002 (ip), vehicle: suspension in saline); 94 % of control and 99 % of control (dose: 10.0 mg/kg/injection, schedule: Q07DX002 (ip), vehicle: suspension in saline); 90 % of control and 96 % of control and 106 % of control (dose: 40.0 mg/kg/injection, schedule: Q07DX002 (ip), vehicle: suspension in saline); 74 % of control (dose: 320.0 mg/kg/injection, schedule: Q07DX002 (ip), vehicle: suspension in saline).

For the compound `C1OCN2CSCC12` (configuration not stated), the T/C under setting [1] was 97 % of control; the T/C under setting [2] was 67 % of control; the T/C under setting [3] is 85 % of control; the T/C under setting [4] was 79 % of control; the T/C under setting [6] was 80 % of control.

In the case of `CC(CN1CC(=O)NC(=O)C1)N1CC(=O)NC(=O)C1` (configuration not stated), the T/C was 84 % of control and 89 % of control (dose: 25.0 mg/kg/injection, schedule: Q07DX003 (ip), vehicle: Klucel (hydroxypropylcellulose) (HPC)); 73 % of control and 85 % of control (dose: 50.0 mg/kg/injection, schedule: Q07DX003 (ip), vehicle: Klucel (hydroxypropylcellulose) (HPC)); 51 % of control and 54 % of control (dose: 200.0 mg/kg/injection, schedule: Q07DX003 (ip), vehicle: Klucel (hydroxypropylcellulose) (HPC)); 9 % of control and 15 % of control (dose: 400.0 mg/kg/injection, schedule: Q07DX003 (ip), vehicle: Klucel (hydroxypropylcellulose) (HPC)).

These data come from PubChem BioAssay AID212 (DTP/NCI, 2004).
